Reference: patent publication US11691972B2, “Compounds for targeted degradation of BRD9” (C4 Therapeutics, Inc., priority 2020, dated 2023)

Biological target: T1, BRD9 (Homo sapiens, UniProt Q9H8M2)
T1 sequence (Q9H8M2 1-597): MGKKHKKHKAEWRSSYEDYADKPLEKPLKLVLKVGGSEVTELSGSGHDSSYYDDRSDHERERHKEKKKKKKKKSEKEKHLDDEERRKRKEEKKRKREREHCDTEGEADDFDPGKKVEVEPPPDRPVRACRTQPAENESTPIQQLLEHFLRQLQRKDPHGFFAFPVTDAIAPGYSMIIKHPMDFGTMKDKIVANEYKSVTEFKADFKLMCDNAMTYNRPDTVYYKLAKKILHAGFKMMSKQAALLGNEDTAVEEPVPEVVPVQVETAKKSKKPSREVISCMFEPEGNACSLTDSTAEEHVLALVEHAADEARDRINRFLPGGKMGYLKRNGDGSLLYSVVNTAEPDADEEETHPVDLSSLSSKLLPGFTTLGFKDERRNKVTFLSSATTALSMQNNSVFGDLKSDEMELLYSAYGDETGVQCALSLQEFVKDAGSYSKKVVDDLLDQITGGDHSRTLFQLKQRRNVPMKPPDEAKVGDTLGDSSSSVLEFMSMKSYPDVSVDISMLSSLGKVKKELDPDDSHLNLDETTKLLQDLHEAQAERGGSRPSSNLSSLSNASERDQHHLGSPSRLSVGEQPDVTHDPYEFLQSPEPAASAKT
Test: HiBiT BRD9 degradation assay in 293T.166 (BRD9-HiBiT) cells
Format: cell-based
Set-up: endogenously expressing BRD9 with HiBiT fusion tag via CRISPR; host or cells: 293T.166 (BRD9-HiBiT), also expressing LgBiT ectopically
Settings: Table 1; 293T.166 cells, 2.0 hours; class symbols; read-out: HiBiT-Degradation 293T.166 BRD9 2.0 hours (DC50)
Method in brief: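 293T.166 cells carrying endogenous CRISPR BRD9-HiBiT and expressing LgBiT treated 2 h at 37° C. with compounds, 11-point half-log titration from 10 μM in duplicate. Remaining BRD9 measured as lytic HiBiT luminescence; untreated cells as negative control, no-reagent wells as positive control.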

Row | DC50 [µM] | SMILES
1 | < 0.1 | CN(C(=O)N1CCC(c2ccc(NC3CCC(=O)NC3=O)cc2)CC1)C1CCN(C(=O)c2ccc(-c3cn(C)c(=O)c4[nH]ncc34)cc2OC(F)(F)F)CC1 (stereo not shown) [Compound 130]
2 | < 0.1 | CN(C(=O)N1CCC(c2ccc(NC3CCC(=O)NC3=O)cc2)CC1)C1CCN(C(=O)c2ccc(-c3cn(C)c(=O)c4cc(F)ccc34)cc2OC(F)(F)F)CC1 (stereo not shown) [Compound 131]
3 | < 0.1 | COc1cc(-c2cn(C)c(=O)c3cnccc23)cc(F)c1C(=O)N1CCC(N(C)C(=O)N2CCC(c3ccc(NC4CCC(=O)NC4=O)cc3)CC2)CC1 (stereo not shown) [Compound 132]
4 | < 0.1 | COc1cc(-c2cn(C)c(=O)c(C)c2C)cc(Cl)c1C(=O)N1CCC(N(C)C(=O)N2CCC(c3ccc(NC4CCC(=O)NC4=O)cc3)CC2)CC1 (stereo not shown) [Compound 133]
5 | < 0.1 | COc1cc(-c2cn(C)c(=O)c3[nH]ncc23)cc(F)c1C(=O)N1CCC(N(C)C(=O)N2CCC(c3ccc(NC4CCC(=O)NC4=O)cc3)CC2)CC1 (stereo not shown) [Compound 134]
6 | < 0.1 | COc1cc(-c2cn(C)c(=O)c3ccccc23)cc(OC)c1C(=O)N1CCC(N(C)C(=O)N2CCC(c3ccc(NC4CCC(=O)NC4=O)cc3)CC2)CC1 (stereo not shown) [Compound 135]
7 | < 0.1 | COc1cc(-c2cn(C)c(=O)c3ccccc23)cc(Cl)c1C(=O)N1CCC(N(C)C(=O)N2CCC(c3ccc(NC4CCC(=O)NC4=O)cc3)CC2)CC1 (stereo not shown) [Compound 136]
8 | < 0.1 | Cc1c(-c2ccc(C(=O)N3CCC(N(C)C(=O)N4CCC(c5ccc(NC6CCC(=O)NC6=O)cc5)CC4)CC34CC4)c(OC(F)(F)F)c2)cn(C)c(=O)c1C (stereo not shown) [Compound 137]
9 | < 0.1 | CN(C(=O)N1CCC(c2ccc(NC3CCC(=O)NC3=O)cc2F)CC1)C1CCN(C(=O)c2ccc(-c3cn(C)c(=O)c4cnccc34)cc2OC(F)(F)F)CC1 (stereo not shown) [Compound 138]
10 | < 0.1 | CN(C(=O)N1CCC(c2ccc(NC3CCC(=O)NC3=O)cc2F)CC1)C1CCN(C(=O)c2ccc(-c3cn(C)c(=O)c4ccccc34)cc2OC(F)(F)F)CC1 (stereo not shown) [Compound 139]
11 | < 0.1 | COc1cc(-c2cn(C)c(=O)c(C)c2C)cc(Cl)c1C(=O)N1CCC(N(C)C(=O)N2CCC(c3ccc(NC4CCC(=O)NC4=O)cc3F)CC2)CC1 (stereo not shown) [Compound 140]
12 | < 0.1 | CN(C(=O)N1CCC(c2ccc(NC3CCC(=O)NC3=O)cc2F)CC1)C1CCN(C(=O)c2ccc(-c3cn(C)c(=O)c4cc(F)ccc34)cc2OC(F)(F)F)CC1 (stereo not shown) [Compound 141]
13 | < 0.1 | COc1cc(-c2cn(C)c(=O)c3cnccc23)cc(Cl)c1C(=O)N1CCC(N(C)C(=O)N2CCC(c3ccc(NC4CCC(=O)NC4=O)cc3F)CC2)CC1 (stereo not shown) [Compound 142]
14 | < 0.1 | Cc1c(-c2ccc(C(=O)N3CCC(N(C)C(=O)N4CCC(c5ccc(NC6CCC(=O)NC6=O)cc5F)CC4)CC3)c(OC(F)(F)F)c2)cn(C)c(=O)c1C (stereo not shown) [Compound 143]
15 | < 0.1 | COc1cc(-c2cn(C)c(=O)c3[nH]ncc23)cc(F)c1CN1CCN(C(=O)NC2CCN(c3ccc(NC4CCC(=O)NC4=O)cc3)CC2)CC1 (stereo not shown) [Compound 145, N-[1-[4-[(2,6-dioxo-3-piperidyl)amino]phenyl]-4-piperidyl]-4-[[2-fluoro-6-methoxy-4-(6-methyl-7-oxo-1H-pyrazolo[3,4-c]pyridin-4-yl)phenyl]methyl]piperazine-1-carboxamide]
16 | < 0.1 | COc1cc(-c2cn(C)c(=O)c3[nH]ncc23)cc(F)c1CN1CCN(C(=O)OC2CCN(c3ccc(NC4CCC(=O)NC4=O)cc3)CC2)CC1 (stereo not shown) [Compound 146, [1-[4-[(2,6-dioxo-3-piperidyl)amino]phenyl]-4-piperidyl] 4-[[2-fluoro-6-methoxy-4-(6-methyl-7-oxo-1H-pyrazolo[3,4-c]pyridin-4-yl)phenyl]methyl]piperazine-1-carboxylate]
17 | < 0.1 | COc1cc(-c2cn(C)c(=O)c3[nH]ncc23)cc(F)c1CN1CCC(CCC2CCN(c3ccc(NC4CCC(=O)NC4=O)cc3)CC2)CC1 (stereo not shown) [Compound 147, 3-[4-[4-[2-[1-[[2-fluoro-6-methoxy-4-(6-methyl-7-oxo-1H-pyrazolo[3,4-c]pyridin-4-yl)phenyl]methyl]-4-piperidyl]ethyl]-1-piperidyl]anilino]piperidine-2,6-dione]
18 | < 0.1 | COc1cc(-c2cn(C)c(=O)c3[nH]ncc23)cc(Cl)c1CN1CCC(CCC2CCN(c3ccc(NC4CCC(=O)NC4=O)cc3F)CC2)CC1 (stereo not shown) [Compound 148]
19 | < 0.1 | COc1cc(-c2cn(C)c(=O)c3cnccc23)cc(Cl)c1CN1CCC(CCC2CCN(c3ccc(NC4CCC(=O)NC4=O)cc3C(F)(F)F)CC2)CC1 (stereo not shown) [Compound 149]
20 | < 0.1 | COc1cc(-c2cn(C)c(=O)c3cnccc23)cc(Cl)c1CN1CCC(CCC2CCN(c3ccc(NC4CCC(=O)NC4=O)cc3F)CC2)CC1 (stereo not shown) [Compound 150]
21 | < 0.1 | COc1cc(-c2cn(C)c(=O)c3[nH]ncc23)cc(Cl)c1CN1CCC(F)(CCC2CCN(c3ccc(NC4CCC(=O)NC4=O)cc3F)CC2)CC1 (stereo not shown) [Compound 151, 3-[4-[4-[2-[1-[[2-chloro-6-methoxy-4-(6-methyl-7-oxo-1H-pyrazolo[3,4-c]pyridin-4-yl)phenyl]methyl]-4-fluoro-4-piperidyl]ethyl]-1-piperidyl]-3-fluoro-anilino]piperidine-2,6-dione]
22 | < 0.1 | COc1cc(-c2cn(C)c(=O)c3cnccc23)cc(Cl)c1CN1CCC(F)(CCC2CCN(c3ccc(NC4CCC(=O)NC4=O)cc3F)CC2)CC1 (stereo not shown) [Compound 152]
23 | < 0.1 | COc1cc(-c2cn(C)c(=O)c(C)c2C)cc(Cl)c1CN1CCC(F)(CCC2CCN(c3ccc(NC4CCC(=O)NC4=O)cc3F)CC2)CC1 (stereo not shown) [Compound 153]
24 | < 0.1 | COc1cc(-c2cn(C)c(=O)c3[nH]ncc23)cc(F)c1CN1CCC(O)(CC(=O)N2CCC(c3ccc(NC4CCC(=O)NC4=O)cc3F)CC2)CC1 (stereo not shown) [Compound 154]
25 | < 0.1 | COc1cc(-c2cn(C)c(=O)c3[nH]ncc23)cc(OC)c1CC1CCN(C(=O)CN2CCC(c3ccc(NC4CCC(=O)NC4=O)cc3)CC2)CC1 (stereo not shown) [Compound 155, 3-[4-[1-[2-[4-[[2,6-dimethoxy-4-(6-methyl-7-oxo-1H-pyrazolo[3,4-c]pyridin-4-yl)phenyl]methyl]-1-piperidyl]-2-oxo-ethyl]-4-piperidyl]anilino]piperidine-2,6-dione]
26 | < 0.1 | COc1cc(-c2cn(C)c(=O)c3[nH]ncc23)cc(F)c1CC1CCN(CC(=O)N2CCC(c3ccc(NC4CCC(=O)NC4=O)cc3)CC2)CC1 (stereo not shown) [Compound 156, 3-[4-[1-[2-[4-[[2-fluoro-6-methoxy-4-(6-methyl-7-oxo-1H-pyrazolo[3,4-c]pyridin-4-yl)phenyl]methyl]-1-piperidyl]acetyl]-4-piperidyl]anilino]piperidine-2,6-dione]
27 | < 0.1 | COc1cc(-c2cn(C)c(=O)c3[nH]ncc23)cc(F)c1C=C1CCN(CC(=O)N2CCC(c3ccc(NC4CCC(=O)NC4=O)cc3)CC2)CC1 (stereo not shown) [Compound 157, 3-[4-[1-[2-[4-[[2-fluoro-6-methoxy-4-(6-methyl-7-oxo-1H-pyrazolo[3,4-c]pyridin-4-yl)phenyl]methylene]-1-piperidyl]acetyl]-4-piperidyl]anilino]piperidine-2,6-dione]
28 | < 0.1 | COc1cc(-c2cn(C)c(=O)c3cnccc23)cc(F)c1CC1CCN(C(=O)CC2CCN(c3ccc(NC4CCC(=O)NC4=O)cc3F)CC2)CC1 (stereo not shown) [Compound 158, 3-[3-fluoro-4-[4-[2-[4-[[2-fluoro-6-methoxy-4-(2-methyl-1-oxo-2,7-naphthyridin-4-yl)phenyl]methyl]-1-piperidyl]-2-oxo-ethyl]-1-piperidyl]anilino]piperidine-2,6-dione]
